Source: patent US20040127567A1, “Novel methods for treating disorders in which docosahexaenoic acid (DHA) levels are affected” (Beth Israel Deaconess Medical Center, Inc., priority 1998, published 2004)
Values joined by “and” are separate entries in the source; they are usually repeats but may differ in a detail not shown here. Identical values can stand only once.

Tests used:
Type in all cases: in vivo, mouse
[1] = tested on: CFTR−/− mice; assay: Fatty acid levels (GC/MS) in pancreas and lung cells of CFTR−/− mice fed n-3 fatty acids; conditions: for AA level in pancreas: CFTR-/- mice, 40 mg/day for one week (fish oil: dose equivalent to 40 mg DHA, 60 mg EPA, 15 mg LNA), mean ± S.D.
[2] = tested on: wild-type mice; assay: Fatty acid levels (GC/MS) in pancreas and lung cells of wild-type mice fed n-3 fatty acids; conditions: for Change in phospholipid/membrane-bound AA (in words) / Change in phospholipid/membrane-bound DHA (in words): 40 mg/day for one week
Experimental: (§1) Mouse pancreatic acinar and lung cell suspensions were prepared from wild type (n=3) and CFTR−/− mice (n=3) by enzymatic and mechanical dissociation. In addition, brain, kidney, heart, spleen, and blood were sonicated in 0.3M sucrose buffer. Membrane lipids were extracted from cell and organ preparations with 20 volumes of chloroform-methanol 2:1 (v/v), transmethylated with 0.5 mL of 0.1 N methanolic-NaOH/BF3 reagent, and the resulting fatty acid methyl esters analyzed by gas chromatography/mass spectrometry (GC/MS). In a different set of experiments, lipids were fractionated by aminopropyl column chromatography into triglycerides, cholesterol esters, and phosphoglycerides and the fatty acid composition of each lipid class determined by a combination of enzymatic hydrolysis, transmethylation, and GC/MS.
Cystic fibrosis (UNC strain) and wild type mice (12-20 grams body weight) were fed with a complete liquid enteral formulation (Peptamen™, Nestle Clinical Nutrition, […], Springville, Utah). DHA content in the Neuromins formulation was 100 mg per 500 mg of formulation. […]
[…] The pellets (0.5 mL for pancreas cell homogenate and 0.6 mL for lung cell homogenate) were extracted with 3 mL of chloroform-methanol 2:1 (v/v). The resulting emulsion was vortexed, centrifuged at 800 g for 3 min., and the lower phase aspirated. The residual upper phase was partitioned again with 3 mL of chloroform-methanol 2:1 (v/v), the lower phase aspirated and both lower phases combined. Fractions were evaporated to dryness, processed for FAME and analyzed by GC-MS. Aliquots of 20 μL of 17:0 in chloroform-methanol 2:1 (v/v) were added to the samples before methylation.
CFTR−/− mice were prepared as described in Example 1. Both CFTR−/− mice and wild type mice were euthanized with carbon dioxide, and cell suspensions from pancreas and lung isolated. Pancreatic acini were prepared by collagenase and mechanical dissociation (Bruzzone et al., (1985) Biochem. J. 226:621-624). A total lung cell suspension was prepared by first flushing contaminating blood by repeated injection of lung with Krebs Henseleit buffer (KHB). Tissue was then extensively minced and incubated for 30 minutes at 37° C. in 10 ml of KHB containing 1,000 units of collagenase (Worthington Biochemical, PA) 2,000 units of DNase, and 0.5 units of thermolysin (Sigma Chemical Co., St. Louis, Mo.). The resulting cell suspension was sedimented once through KHB containing 5% BSA and subsequently washed once in KHB, pH 7.4 containing 32 mM bicarbonate, 10 mM Hepes, and 0.5% BSA. Brain, kidney, and heart were removed and sonicated in 0.5 mL and 0.3M sucrose. A similar approach was used for duodenum and ileum except that mucosal scrapings were used for sonication.
Since the pancreas and the lung are the two primary organs affected in cystic fibrosis, AA and DHA levels in cell preparations of these organs and in wild-type and CFTR−/− mice were quantitated by GC/MS analysis. Lipids were extracted from cell suspensions, tissue homogenates, and blood plasma with 6 volumes of chloroform-methanol (2:1, v/v). The resulting emulsions were centrifuged at 600 g for 3 min and the lower phase containing the lipids was collected. This procedure was repeated twice and the lower phases from the two extractions combined. Aliquots of 30 μL of heptadecanoic acid (17:0) (1 mg/ml) were added to the extracts and used as an internal standard.

[3] = Plasma levels of DHA in mice fed DHA; conditions: for Plasma level of DHA: values for two different mice
Experimental: as §1
Cystic fibrosis (UNC strain) and wild type mice (12-20 grams body weight) were fed with a complete liquid enteral formulation (Peptamen™, Nestle Clinical Nutrition, Inc.) supplemented with different quantities of the DHA-containing formulation Neuromins (Nature's Way Products Inc., Springville, Utah). DHA content in the Neuromins formulation was 100 mg per 500 mg of formulation. Mice were fed once a day at about 11 a.m., seven days a week with 20 ml of Peptamen™ supplemented with the various amounts of either Neuramins, free DHA (Sigma Chemical Co., MO) or DHA-ethyl ester (Nu-Check-Prep, Inc. MN) ranging from 0.5 mg/day of DHA to 40 mg/day of DHA.
Plasma levels of DHA in CF and wild-type mice were measured as described above in the method section.
Since the pancreas and the lung are the two primary organs affected in cystic fibrosis, AA and DHA levels in cell preparations of these organs and in wild-type and CFTR−/− mice were quantitated by GC/MS analysis. Lipids were extracted from cell suspensions, tissue homogenates, and blood plasma with 6 volumes of chloroform-methanol (2:1, v/v). The resulting emulsions were centrifuged at 600 g for 3 min and the lower phase containing the lipids was collected. This procedure was repeated twice and the lower phases from the two extractions combined. Aliquots of 30 μL of heptadecanoic acid (17:0) (1 mg/ml) were added to the extracts and used as an internal standard. Samples were evaporated to dryness under nitrogen. The resulting lipids were subsequently transmethylated using the 0.1N methanolic NaOH/boron tri fluoride reagent (Alvarez et al., (1995) Mol. Reprod. Dev. 42:334-346). The resulting fatty acid methyl esters were analyzed by Hewlett Packard GC/MS mounted with a WCOT capillary column (Supelcowax-10, 30 m×0.53 mm I.D., 1 μm film thickness) with initial and final temperatures in the column oven of 150° C. and 250° C., respectively, programmed to increase at a rate of 10° C./min. Fatty acid methyl ester peaks were identified by comparison of retention times of standard fatty acid mixtures and by mass spectrometry, and quantified using methylheptadecanoate as the internal standard. In some studies, the different lipid classes including cholesterol esters, triglycerides, free fatty acids, and glycerolipids, were also fractionated from cell and tissue extracts by aminopropyl column chromatography and the corresponding fatty acid methyl esters prepared and analyzed (Alvarez et al., (1992) J. Chromatogr. B. 577:142-145). In order to determine the fatty acids bound to the sn-2 position of lipids, the phospholipid fraction obtained by aminopropyl column chromatography was incubated at 37° C. for 15 min in 0.5 ml of PBS containing 250 units of phospholipase A2, and the resulting fatty acids methylated and analyzed by GC/MS (Alvarez et al., (1995) Mol. Reprod. Dev. 42:334-346).

[4] = WT mouse fed Peptamen supplemented with DHA
[5] = CFTR (-/-) mice, 40 mg DPA per day for 7 days
[6] = wild-type mice, 40 mg DPA per day for 7 days
[7] = wild-type mice, listed as 18:3n-3

CC/C=C\C/C=C\C/C=C\C/C=C\C/C=C\C/C=C\CCC(=O)O [DHA, docosahexaenoic acid]
AA level in pancreas [1]: 4.9 ± 1.8 nmol/mg
20:4n-6 in lung [2, 4]: 28 nmoles per total extract
20:4n-6 in pancreas [2, 4]: 82 nmoles per total extract
22:4n-6 in lung [2, 4]: 2 nmoles per total extract
22:4n-6 in pancreas [2, 4]: 1.6 nmoles per total extract
22:6n-3 in lung [2, 4]: 227 nmoles per total extract
22:6n-3 in pancreas [2, 4]: 200 nmoles per total extract
Plasma level of DHA ([3]; CF mice, 0.5 mg/day DHA): 41 µg/mL and 40 µg/mL
Plasma level of DHA ([3]; CF mice, 2 mg/day DHA): 99 µg/mL and 77 µg/mL
Plasma level of DHA ([3]; CF mice, 10 mg/day DHA): 106 µg/mL and 133 µg/mL
Plasma level of DHA ([3]; CF mice, 40 mg/day DHA): 230 µg/mL and 263 µg/mL
DHA plasma level reached ([3]; CFTR−/− mice, 35 to 40 mg/day DHA in liquid enteral formulation): above 170 μg/ml
Plasma level of DHA ([3]; WT mice, 40 mg/day DHA): 214 µg/mL and 194 µg/mL
DHA plasma levels in CFTR−/− versus wild-type mice ([3]; increasing oral doses of DHA, p=0.5, n=3 (FIG. 6)): not significantly different

CC/C=C\C/C=C\C/C=C\C/C=C\C/C=C\CCCCCC(=O)O [DPA, docosapentaenoic acid]
20:5n-3 in pancreas [1, 5]: 14.6 ± 1.1 (0.1) nmoles of fatty acid per mg of protein
22:6n-3 in pancreas [1, 5]: 2.0 ± 0.4(1.5) nmoles of fatty acid per mg of protein
AA level in pancreas [1]: 5.1 ± 0.6 nmol/mg
20:4n-6 in lung [2, 6]: 7.8 ± 0.9 (17.5) nmoles of fatty acid per mg of protein
20:4n-6 in pancreas [2, 6]: 6.8 ± 0.6 (13.3) nmoles of fatty acid per mg of protein
20:5n-3 in lung [2, 6]: 8.6 ± 0.8 (0.07) nmoles of fatty acid per mg of protein
20:5n-3 in pancreas [2, 6]: 7.5 ± 0.8 (0.07) nmoles of fatty acid per mg of protein
22:6n-3 in lung [2, 6]: 7.5 ± 0.8 (4.0) nmoles of fatty acid per mg of protein
22:6n-3 in pancreas [2, 6]: 2.5 ± 0.4 (1.5) nmoles of fatty acid per mg of protein

CC/C=C\C/C=C\C/C=C\CCCCCCCC(=O)O [LNA, α-linolenic acid, reference compound]
AA level in pancreas [1]: 5.5 ± 0.8 nmol/mg
Change in phospholipid/membrane-bound AA (in words) ([2]; wild-type mice): decrease in membrane-bound AA
Change in phospholipid/membrane-bound DHA (in words) ([2]; wild-type mice): increase in membrane-bound DHA
Change in phospholipid/membrane-bound AA (in words) [2, 7]: decrease in phospholipid-bound AA
Change in phospholipid/membrane-bound DHA (in words) [2, 7]: increase in phospholipid-bound DHA
